Data from patent publication US20130310452A1, “ANTIFUNGAL FLAVOURING INGREDIENTS AND COMPOSITIONS” (FIRMENICH SA, priority 2011, published 2013).

System: main fungi responsible for beverage and food spoilage (yeast and mould strains)
Assay: Growth inhibition of yeast and mould strains in 105 g/L sucrose solution (OD after 21 days)
Assay type: cell-based
Procedure: The antifungal activity of various flavouring ingredients was evaluated against the following yeast strains: Zygosaccharomyces rouxii (DSM70835), Pichia membranaefaciens (DSM 70369), Dekkera Bruxellensis (DSM70726), Saccharomyces cerevisiae (DSM 70869) and Candida krusei (origin: Leatherhead Food Research) and against the following moulds strains: Byssochlamys nivea, Fusarium solani, Aspergillus fumigatis, Byssochlamys fulva, Aspergillus niger, Talaromyces Harzanium, Penicillium crustosum, Penicillium digitatum, Neosartorya fischeri, Penicillium roquerforti, Fusarium oxysporum.
A 105 g/L solution of sucrose in water at pH 3±0.2 was prepared. Another sucrose solution at the same concentration at pH 5±0.2 was also prepared. The sucrose solutions were autoclaved at 121° C. for 15 minutes and the pH was re-checked to ensure it remained within the range.
Test samples were then prepared in microtiter plates. An amount of 100 μL of sucrose solution prepared above, were mixed with an inoculum of 20 μL of one fungal strain, so as to achieve a microbial level comprised between 10^2 and 10^3 cfu/mL.
The flavouring ingredient or composition was then added to the microtiter plate. Dilutions were prepared in the microtiter plate for each mixture of sucrose solution and inoculum to afford final concentrations of 2000 ppm, 1000 ppm, 500 ppm, 250 ppm and 125 ppm of the ingredient or composition to be tested. One well for each mixture of sucrose solution and inoculum was kept free of flavouring ingredient or composition, to serve as a control.
The microtiter plates were then stored in a standard 25° C. incubator under aerobic conditions.
The optical density (OD) of each sample was measured after 21 days of incubation using a Bio-Tek Synergy™ HT Multi-Mode Microplate Reader (from Labtech International, UK). The wavelength was set to 380 nm for yeast strains and to 500 nm for mould strains. All tests were done in triplicate to ensure statistical relevance of the results.
The following tables indicate the OD measurements obtained when each flavouring ingredient or composition was used to inhibit growth of yeast and mould strains involved at concentration ranging between 0 and 2000 ppm. Measurements corresponding to efficient growth inhibition are indicated by grey cells in the tables below. Results were considered as evidence of efficient growth inhibition when the OD of the growth medium was below 0.2. OD measurements below 0.2 were not considered as sufficient evidence of the antifungal activity of a given flavouring ingredient or composition at a given concentration if OD measurements obtained with a higher concentration of such flavouring ingredient or composition were above 0.2.

[1] = sucrose solution at pH 3, concentrations of 1000 ppm or less, OD below 0.2 after 21 days at 25° C., 16 strains tested
[2] = sucrose solution at pH 5, concentrations of 1000 ppm or less, OD below 0.2 after 21 days at 25° C., 16 strains tested

SMILES | number of the main fungi responsible for beverage and food spoilage against which there is a strong antifungal effect [1] | number of the main fungi responsible for beverage and food spoilage against which there is a strong antifungal effect [2] | number of the main fungi responsible for beverage and food spoilage against which there is a strong antifungal effect (pH 3) | number of the main fungi responsible for beverage and food spoilage against which there is a strong antifungal effect (pH 5)
CCCCC(C)C(=O)O (stereo not drawn) [2-methylhexanoic acid] | 15 | 16 |  | 
CCCCCc1ccco1 [2-pentylfuran] | 3 | 2 |  | 
CC(C)CC=C(C=O)c1ccccc1 [5-methyl-2-phenyl-2-hexenal] |  |  | 9 | 5
CC(=O)C=CCCC(C)C [7-methyl-3-octen-2-one] | 6 | 11 |  | 
C[C@@H]1CC[C@H]2[C@H](C)C(=O)O[C@@H]2C1 [(+)-(3S,3AS,6R,7AR)-perhydro-3,6-dimethyl-benzo[B]furan-2-one] | 3 | 2 |  | 
Cc1ccc(C(C)C)cc1O [carvacrol] | 15 | 14 |  | 
CCCc1ccc(O)c(OC)c1 [dihydro eugenol] | 15 | 15 |  | 
CC(C)=CCCC(C)=CCCC(C)=CCO [farnesol] | 2 |  |  | 
COc1cc(C)cc(O)c1 [orcinyle, 3-methoxy-5-methylphenol] | 2 |  |  | 
O=C(O)c1ccccc1O [salicylic acid] | 12 | 14 |  | 
CC1=CCC(=C(C)C)CC1 [terpinolene] | 15 | 7 |  | 
Cc1ccc(C(C)C)c(O)c1 [thymol] | 4 |  |  | 
